{"source": "patent US7138361B2", "about": "“Herbicidal heterocycles” (E. I. du Pont de Nemours and Company, priority 2000, dated 2006)", "type_in_all_cases": "in vivo", "key": {"[1]": {"tested_on": "smallflower flatsedge (Cyperus difformis)", "assay": "Test C flooded paddy test", "conditions": "for Flatsedge plant response rating: Flooded Paddy, scale 0 to 100, 0 no effect, 100 complete control; for Plant response rating, Flatsedge: flooded paddy test, scale 0 to 100 (0 no effect, 100 complete control)", "outline": "(§1)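 Each species was cultivated to 2 leaves in flooded paddy pots, then treated. After a greenhouse period of 12–14 days, the plants were scored visually relative to controls from 0 (no effect) to 100 (complete control).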"}, "[2]": {"tested_on": "duck salad (Heteranthera limosa)", "assay": "Test C flooded paddy test", "conditions": "for Ducksalad plant response rating: Flooded Paddy, scale 0 to 100, 0 no effect, 100 complete control; for Plant response rating, Ducksalad: flooded paddy test, scale 0 to 100 (0 no effect, 100 complete control)", "outline": "as §1"}, "[3]": {"tested_on": "barnyardgrass (Echinochloa crus-galli)", "assay": "Test C flooded paddy test", "conditions": "for Barnyardgrass plant response rating: Flooded Paddy, scale 0 to 100, 0 no effect, 100 complete control; for Plant response rating, Barnyardgrass: flooded paddy test, scale 0 to 100 (0 no effect, 100 complete control)", "outline": "as §1"}, "[4]": {"tested_on": "giant foxtail (Setaria faberii)", "assay": "Test C preemergence", "outline": "(§2)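 Seeds are planted and treated before emergence; for the postemergence test, plants at 1- to 4-leaf stage (2–18 cm) receive the same formulation, a solvent blend containing surfactant. Plants stay in the greenhouse 12–14 days, then response is scored visually from 0 (none) to 100 (complete control).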"}, "corn (Zea mays)": {"tested_on": "corn (Zea mays)", "assay": "Test C preemergence", "outline": "as §2"}, "[5]": {"tested_on": "morningglory (Ipomoea hederacea)", "assay": "Test C preemergence", "outline": "as §2"}, "[6]": {"tested_on": "cocklebur (Xanthium strumarium)", "assay": "Test C preemergence", "outline": "as §2"}, "kochia (Kochia scoparia)": {"tested_on": "kochia (Kochia scoparia)", "assay": "Test C preemergence", "outline": "as §2"}, "[7]": {"tested_on": "pigweed (Amaranthus retroflexus)", "assay": "Test C preemergence", "outline": "as §2"}, "[8]": {"tested_on": "crabgrass (Digitaria sanguinalis)", "assay": "Test C preemergence", "outline": "as §2"}, "[9]": {"tested_on": "bermudagrass (Cynodon dactylon)", "assay": "Test C preemergence", "outline": "as §2"}, "soybean (Glycine max)": {"tested_on": "soybean (Glycine max)", "assay": "Test C preemergence", "outline": "as §2"}, "Nightshade": {"tested_on": "Nightshade", "assay": "Test C preemergence"}, "[10]": {"tested_on": "common ragweed (Ambrosia elatior)", "assay": "Test C preemergence", "outline": "as §2"}, "[11]": {"tested_on": "woolly cupgrass (Eriochloa villosa)", "assay": "Test C preemergence", "outline": "as §2"}, "[12]": {"tested_on": "Surinam grass (Brachiaria decumbens)", "assay": "Test C preemergence", "outline": "as §2"}, "[13]": {"tested_on": "yellow nutsedge (Cyperus esculentus)", "assay": "Test C preemergence", "outline": "as §2"}, "[14]": {"tested_on": "goosegrass (Eleusine indica)", "assay": "Test C preemergence", "outline": "as §2"}, "Sunflower": {"tested_on": "Sunflower", "assay": "Test C preemergence", "conditions": "Rate 125 g/ha; scale 0 to 100, 0 no effect, 100 complete control"}, "[15]": {"tested_on": "johnsongrass (Sorghum halepense)", "assay": "Test C preemergence", "outline": "as §2"}, "[16]": {"tested_on": "lambsquarters (Chenopodium album)", "assay": "Test C preemergence", "outline": "as §2"}, "[17]": {"tested_on": "velvetleaf (Abutilon theophrasti)", "assay": "Test C preemergence", "outline": "as §2"}, "[18]": {"conditions": "Rate 125 g/ha, scale 0 to 100, 0 no effect, 100 complete control"}, "[19]": {"conditions": "preemergence, Rate 62 g/ha, scale 0 to 100"}, "[20]": {"conditions": "preemergence, Rate 500 g/ha, visual evaluation after 12 to 14 days"}, "[21]": {"conditions": "preemergence, Rate 250 g/ha, scale 0 to 100, 0 no effect, 100 complete control"}}}
{"smiles": "CC(C)c1cccc(N2CCC(n3ccc(C(C)(C)C)n3)C2=O)c1", "note": "(stereo not drawn) [Compound 111]", "values": [{"measurement": "Flatsedge plant response rating", "setting": "[1]; Rate 250 g/ha", "value": 90}, {"measurement": "Flatsedge plant response rating", "setting": "[1]; Rate 500 g/ha", "value": 90}, {"measurement": "Plant response rating, Flatsedge", "setting": "[1]; Rate 62 g/ha", "value": 50}, {"measurement": "Plant response rating, Flatsedge", "setting": "[1]; Rate 125 g/ha", "value": 60}, {"measurement": "Ducksalad plant response rating", "setting": "[2]; Rate 250 g/ha", "value": 0}, {"measurement": "Ducksalad plant response rating", "setting": "[2]; Rate 500 g/ha", "value": 0}, {"measurement": "Plant response rating, Ducksalad", "setting": "[2]; Rate 62 g/ha", "value": 0}, {"measurement": "Plant response rating, Ducksalad", "setting": "[2]; Rate 125 g/ha", "value": 0}, {"measurement": "Barnyardgrass plant response rating", "setting": "[3]; Rate 250 g/ha", "value": 20}, {"measurement": "Barnyardgrass plant response rating", "setting": "[3]; Rate 500 g/ha", "value": 30}, {"measurement": "Plant response rating, Barnyardgrass", "setting": "[3]; Rate 62 g/ha", "value": 0}, {"measurement": "Plant response rating, Barnyardgrass", "setting": "[3]; Rate 125 g/ha", "value": 0}, {"measurement": "Plant response rating, Foxtail, Giant", "setting": "[4]; [18]", "value": 0}, {"measurement": "Plant response rating, Foxtail, Giant", "setting": "[4]; [19]", "value": 0}, {"measurement": "Plant response rating (0 to 100), Foxtail, Giant", "setting": "[4]; [20]", "value": 80}, {"measurement": "Plant response rating, Foxtail, Giant", "setting": "[4]; [21]", "value": 30}, {"measurement": "Plant response rating, Corn", "setting": "corn (Zea mays); [18]", "value": 0}, {"measurement": "Plant response rating, Corn", "setting": "corn (Zea mays); [19]", "value": 0}, {"measurement": "Plant response rating (0 to 100), Corn", "setting": "corn (Zea mays); [20]", "value": 0}, {"measurement": "Plant response rating, Corn", "setting": "corn (Zea mays); [21]", "value": 0}, {"measurement": "Plant response rating, Morningglory", "setting": "[5]; [18]", "value": 0}, {"measurement": "Plant response rating, Morningglory", "setting": "[5]; [19]", "value": 0}, {"measurement": "Plant response rating (0 to 100), Morningglory", "setting": "[5]; [20]", "value": 0}, {"measurement": "Plant response rating, Morningglory", "setting": "[5]; [21]", "value": 0}, {"measurement": "Plant response rating, Cocklebur", "setting": "[6]; [18]", "value": 0}, {"measurement": "Plant response rating, Cocklebur", "setting": "[6]; [19]", "value": 0}, {"measurement": "Plant response rating (0 to 100), Cocklebur", "setting": "[6]; [20]", "value": 0}, {"measurement": "Plant response rating, Cocklebur", "setting": "[6]; [21]", "value": 0}, {"measurement": "Plant response rating, Kochia", "setting": "kochia (Kochia scoparia); [18]", "value": 0}, {"measurement": "Plant response rating, Kochia", "setting": "kochia (Kochia scoparia); [19]", "value": 0}, {"measurement": "Plant response rating (0 to 100), Kochia", "setting": "kochia (Kochia scoparia); [20]", "value": 0}, {"measurement": "Plant response rating, Kochia", "setting": "kochia (Kochia scoparia); [21]", "value": 0}, {"measurement": "Plant response rating, Pigweed", "setting": "[7]; [18]", "value": 20}, {"measurement": "Plant response rating, Pigweed", "setting": "[7]; [19]", "value": 80}, {"measurement": "Plant response rating (0 to 100), Pigweed", "setting": "[7]; [20]", "value": 50}, {"measurement": "Plant response rating, Pigweed", "setting": "[7]; [21]", "value": 20}, {"measurement": "Plant response rating, Crabgrass", "setting": "[8]; [18]", "value": 100}, {"measurement": "Plant response rating, Crabgrass", "setting": "[8]; [19]", "value": 80}, {"measurement": "Plant response rating (0 to 100), Crabgrass", "setting": "[8]; [20]", "value": 100}, {"measurement": "Plant response rating, Crabgrass", "setting": "[8]; [21]", "value": 100}, {"measurement": "Plant response rating, Bermudagrass", "setting": "[9]; [18]", "value": 90}, {"measurement": "Plant response rating, Bermudagrass", "setting": "[9]; [19]", "value": 60}, {"measurement": "Plant response rating (0 to 100 where 0 is no effect and 100 is complete control), Bermudagrass", "setting": "[9]; [20]", "value": 100}, {"measurement": "Plant response rating, Bermudagrass", "setting": "[9]; [21]", "value": 100}, {"measurement": "Plant response rating, Soybean", "setting": "soybean (Glycine max); [18]", "value": 0}, {"measurement": "Plant response rating, Soybean", "setting": "soybean (Glycine max); [19]", "value": 0}, {"measurement": "Plant response rating (0 to 100), Soybean", "setting": "soybean (Glycine max); [20]", "value": 0}, {"measurement": "Plant response rating, Soybean", "setting": "soybean (Glycine max); [21]", "value": 0}, {"measurement": "Plant response rating, Nightshade", "setting": "Nightshade; Rate 62 g/ha, scale 0 to 100", "value": 0}, {"measurement": "Plant response rating, Nightshade", "setting": "Nightshade; [18]", "value": 0}, {"measurement": "Plant response rating, Nightshade", "setting": "Nightshade; Rate 250 g/ha, scale 0 to 100, 0 no effect, 100 complete control", "value": 0}, {"measurement": "Plant response rating, Ragweed, Common", "setting": "[10]; [18]", "value": 0}, {"measurement": "Plant response rating, Ragweed, Common", "setting": "[10]; [19]", "value": 0}, {"measurement": "Plant response rating (0 to 100), Ragweed, Common", "setting": "[10]; [20]", "value": 0}, {"measurement": "Plant response rating, Ragweed, Common", "setting": "[10]; [21]", "value": 0}, {"measurement": "Plant response rating, Cupgrass, Woolly", "setting": "[11]; [18]", "value": 20}, {"measurement": "Plant response rating, Cupgrass, Woolly", "setting": "[11]; [19]", "value": 0}, {"measurement": "Plant response rating (0 to 100), Cupgrass, Woolly", "setting": "[11]; [20]", "value": 60}, {"measurement": "Plant response rating, Cupgrass, Woolly", "setting": "[11]; [21]", "value": 60}, {"measurement": "Plant response rating, Surinam grass", "setting": "[12]; [18]", "value": 0}, {"measurement": "Plant response rating, Surinam grass", "setting": "[12]; [19]", "value": 0}, {"measurement": "Plant response rating (0 to 100), Surinam grass", "setting": "[12]; [20]", "value": 10}, {"measurement": "Plant response rating, Surinam grass", "setting": "[12]; [21]", "value": 0}, {"measurement": "Plant response rating, Nutsedge", "setting": "[13]; [18]", "value": 0}, {"measurement": "Plant response rating, Nutsedge", "setting": "[13]; [19]", "value": 0}, {"measurement": "Plant response rating (0 to 100), Nutsedge", "setting": "[13]; [20]", "value": 0}, {"measurement": "Plant response rating, Nutsedge", "setting": "[13]; [21]", "value": 0}, {"measurement": "Plant response rating, Goosegrass", "setting": "[14]; [18]", "value": 85}, {"measurement": "Plant response rating, Goosegrass", "setting": "[14]; [19]", "value": 40}, {"measurement": "Plant response rating (0 to 100), Goosegrass", "setting": "[14]; [20]", "value": 100}, {"measurement": "Plant response rating, Goosegrass", "setting": "[14]; [21]", "value": 100}, {"measurement": "Plant response rating, Sunflower", "setting": "Sunflower", "value": 0}, {"measurement": "Plant response rating, Johnsongrass", "setting": "[15]; [18]", "value": 0}, {"measurement": "Plant response rating, Johnsongrass", "setting": "[15]; [19]", "value": 0}, {"measurement": "Plant response rating (0 to 100), Johnsongrass", "setting": "[15]; [20]", "value": 25}, {"measurement": "Plant response rating, Johnsongrass", "setting": "[15]; [21]", "value": 0}, {"measurement": "Plant response rating, Lambsquarters", "setting": "[16]; [18]", "value": 85}, {"measurement": "Plant response rating, Lambsquarters", "setting": "[16]; [19]", "value": 70}, {"measurement": "Plant response rating (0 to 100), Lambsquarters", "setting": "[16]; [20]", "value": 100}, {"measurement": "Plant response rating, Lambsquarters", "setting": "[16]; [21]", "value": 100}, {"measurement": "Plant response rating, Velvetleaf", "setting": "[17]; [18]", "value": 0}, {"measurement": "Plant response rating, Velvetleaf", "setting": "[17]; [19]", "value": 0}, {"measurement": "Plant response rating (0 to 100), Velvetleaf", "setting": "[17]; [20]", "value": 0}, {"measurement": "Plant response rating, Velvetleaf", "setting": "[17]; [21]", "value": 0}]}
